Data: publication PMC9736855, “Discovery of 3-Amino-1H-pyrazole-Based Kinase Inhibitors to Illuminate the Understudied PCTAIRE Family” (International Journal of Molecular Sciences, 2022)

Experiments:
Test in all cases: DSF
Format in all cases: binding
BRPF1B = target: T1, BRPF1B (Homo sapiens, UniProt P55201)
T1 construct: purchased in-house DSF panel (SGC Frankfurt)

ABL1 = target: T2, ABL1 (Homo sapiens, UniProt P00519)
T2 construct: purchased in-house DSF panel (SGC Frankfurt)
T2 sequence (P00519 229-500): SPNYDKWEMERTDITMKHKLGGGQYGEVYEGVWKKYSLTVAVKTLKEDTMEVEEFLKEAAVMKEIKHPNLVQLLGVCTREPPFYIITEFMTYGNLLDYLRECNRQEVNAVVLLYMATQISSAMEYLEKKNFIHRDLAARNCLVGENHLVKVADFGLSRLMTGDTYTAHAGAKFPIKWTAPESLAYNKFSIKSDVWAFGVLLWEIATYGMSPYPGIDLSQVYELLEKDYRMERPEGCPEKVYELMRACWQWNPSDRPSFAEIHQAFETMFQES
Protocol: (§1) Recombinant protein kinase domains with a concentration of 2 μM were mixed with a 10 μM compound solution in DMSO, 20 mM HEPES, pH 7.5, and 500 mM NaCl. SYPRO Orange (5000×, Invitrogen) was added as a fluorescence probe (1 µl per mL). Subsequently, temperature-dependent protein unfolding profiles were measured, using the QuantStudio™ 5 realtime PCR machine (Thermo Fisher, Waltham, MA, USA). […] The temperature was raised with a step rate of 3 °C per minute. Data points were analyzed with the internal software (Thermal Shift SoftwareTM Version 1.4, Thermo Fisher) using the Boltzmann equation to determine the inflection point of the transition curve. Differences in melting temperature are given as ΔTm values in °C. Measurements were performed in duplicates.

CASK = target: T3, CASK (Homo sapiens, UniProt O14936)
T3 construct: purchased in-house DSF panel (SGC Frankfurt)
T3 sequence (O14936 1-337): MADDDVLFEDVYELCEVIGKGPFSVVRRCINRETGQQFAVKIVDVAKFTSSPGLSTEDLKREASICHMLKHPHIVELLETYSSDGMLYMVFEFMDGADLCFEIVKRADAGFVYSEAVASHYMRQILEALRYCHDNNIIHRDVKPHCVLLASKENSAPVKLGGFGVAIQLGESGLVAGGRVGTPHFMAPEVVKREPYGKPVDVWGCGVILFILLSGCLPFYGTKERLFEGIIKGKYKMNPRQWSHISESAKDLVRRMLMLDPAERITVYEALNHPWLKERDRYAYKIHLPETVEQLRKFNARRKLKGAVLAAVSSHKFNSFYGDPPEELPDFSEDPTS
Protocol: as §1

MAPK1 = target: T4, MAPK1 (Homo sapiens, UniProt P28482)
T4 construct: purchased in-house DSF panel (SGC Frankfurt)
T4 sequence (P28482 whole entry): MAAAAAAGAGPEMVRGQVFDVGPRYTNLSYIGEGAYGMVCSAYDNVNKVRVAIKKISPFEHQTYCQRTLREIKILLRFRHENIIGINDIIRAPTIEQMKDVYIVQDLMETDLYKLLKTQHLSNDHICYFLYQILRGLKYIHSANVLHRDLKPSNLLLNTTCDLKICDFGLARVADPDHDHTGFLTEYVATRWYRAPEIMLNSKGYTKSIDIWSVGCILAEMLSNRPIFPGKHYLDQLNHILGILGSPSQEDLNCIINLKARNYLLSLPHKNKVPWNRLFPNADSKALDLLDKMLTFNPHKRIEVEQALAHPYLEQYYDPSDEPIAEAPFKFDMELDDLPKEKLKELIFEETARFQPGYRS
Protocol: as §1

PHKG2 = target: T5, PHKG2 (Homo sapiens, UniProt P15735)
T5 construct: purchased in-house DSF panel (SGC Frankfurt)
T5 sequence (P15735 6-293): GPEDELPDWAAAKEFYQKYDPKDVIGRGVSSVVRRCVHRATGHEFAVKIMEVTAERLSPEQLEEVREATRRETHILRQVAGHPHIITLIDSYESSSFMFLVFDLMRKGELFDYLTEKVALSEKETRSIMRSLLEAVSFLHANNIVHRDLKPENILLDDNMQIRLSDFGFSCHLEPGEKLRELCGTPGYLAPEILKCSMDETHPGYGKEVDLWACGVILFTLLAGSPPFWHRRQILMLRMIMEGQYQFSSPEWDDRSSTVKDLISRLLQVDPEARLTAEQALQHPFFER
Protocol: as §1

VRK1 = target: T6, VRK1 (Homo sapiens, UniProt Q99986)
T6 construct: purchased in-house DSF panel (SGC Frankfurt)
T6 sequence (Q99986 1-396): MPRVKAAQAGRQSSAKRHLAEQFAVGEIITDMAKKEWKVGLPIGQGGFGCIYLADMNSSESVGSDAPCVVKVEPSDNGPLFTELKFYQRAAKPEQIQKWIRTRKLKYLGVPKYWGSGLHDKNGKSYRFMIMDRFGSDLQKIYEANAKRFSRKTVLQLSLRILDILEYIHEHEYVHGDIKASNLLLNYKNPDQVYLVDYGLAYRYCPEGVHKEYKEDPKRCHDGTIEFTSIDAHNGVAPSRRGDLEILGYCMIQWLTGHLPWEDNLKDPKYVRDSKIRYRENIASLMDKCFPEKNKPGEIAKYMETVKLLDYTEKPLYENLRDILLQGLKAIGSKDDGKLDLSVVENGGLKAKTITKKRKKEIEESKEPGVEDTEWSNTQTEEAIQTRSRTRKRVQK
Protocol: as §1

CLK3 = target: T7, CLK3 (Homo sapiens, UniProt P49761)
T7 construct: purchased in-house DSF panel (SGC Frankfurt)
T7 sequence (P49761 127-484): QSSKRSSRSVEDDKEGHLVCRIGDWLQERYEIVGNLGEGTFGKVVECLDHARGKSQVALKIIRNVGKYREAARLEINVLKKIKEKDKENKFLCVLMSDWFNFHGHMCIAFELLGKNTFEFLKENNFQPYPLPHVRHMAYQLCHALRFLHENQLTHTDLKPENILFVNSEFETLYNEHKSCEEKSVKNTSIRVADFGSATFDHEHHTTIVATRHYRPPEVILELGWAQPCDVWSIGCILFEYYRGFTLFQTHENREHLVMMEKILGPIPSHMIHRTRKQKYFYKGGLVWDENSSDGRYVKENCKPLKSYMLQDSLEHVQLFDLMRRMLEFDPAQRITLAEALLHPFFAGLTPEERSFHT
Protocol: (§2) Recombinant protein kinase domains with a concentration of 2 μM were mixed with a 10 μM compound solution in DMSO, 20 mM HEPES, pH 7.5, and 500 mM NaCl. SYPRO Orange (5000×, Invitrogen) was added as a fluorescence probe (1 µl per mL). Subsequently, temperature-dependent protein unfolding profiles were measured, using the QuantStudio™ 5 realtime PCR machine (Thermo Fisher, Waltham, MA, USA). […] The temperature was raised with a step rate of 3 °C per minute. Data points were analyzed with the internal software (Thermal Shift SoftwareTM Version 1.4, Thermo Fisher) using the Boltzmann equation to determine the inflection point of the transition curve [56]. Differences in melting temperature are given as ΔTm values in °C. Measurements were performed in duplicates.

DYRK1A = target: T8, DYRK1A (Homo sapiens, UniProt Q13627)
T8 construct: purchased in-house DSF panel (SGC Frankfurt)
Protocol: as §2

EPHB1 = target: T9, EPHB1 (Homo sapiens, UniProt P54762)
T9 construct: purchased in-house DSF panel (SGC Frankfurt)
T9 sequence (P54762 602-896): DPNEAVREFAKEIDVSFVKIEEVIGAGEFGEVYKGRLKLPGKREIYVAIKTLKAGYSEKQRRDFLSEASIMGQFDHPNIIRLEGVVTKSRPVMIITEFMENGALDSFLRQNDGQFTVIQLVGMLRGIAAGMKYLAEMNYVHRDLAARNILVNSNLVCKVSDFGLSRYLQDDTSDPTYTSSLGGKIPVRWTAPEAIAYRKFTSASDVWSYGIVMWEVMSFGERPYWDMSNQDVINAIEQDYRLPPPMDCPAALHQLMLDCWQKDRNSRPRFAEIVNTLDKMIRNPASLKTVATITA
Protocol: as §2

MAPK8 = target: T10, MAPK8 (Homo sapiens, UniProt P45983)
T10 construct: purchased in-house DSF panel (SGC Frankfurt)
T10 sequence (P45983 1-364): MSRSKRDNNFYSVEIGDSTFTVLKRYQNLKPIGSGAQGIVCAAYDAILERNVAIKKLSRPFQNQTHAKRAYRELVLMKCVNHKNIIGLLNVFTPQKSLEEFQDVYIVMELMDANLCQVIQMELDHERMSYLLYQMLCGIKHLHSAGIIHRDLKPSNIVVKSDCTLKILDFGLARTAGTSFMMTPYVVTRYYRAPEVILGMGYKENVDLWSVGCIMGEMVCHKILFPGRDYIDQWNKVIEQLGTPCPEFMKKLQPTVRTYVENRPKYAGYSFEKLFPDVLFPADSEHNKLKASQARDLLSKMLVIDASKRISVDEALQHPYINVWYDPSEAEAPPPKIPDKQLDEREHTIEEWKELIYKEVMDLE
Protocol: as §2

MAPK9 = target: T11, MAPK9 (Homo sapiens, UniProt P45984);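 note: compound tested at 10 µM with 2 µM protein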
T11 construct: purchased in-house DSF panel (SGC Frankfurt)
T11 sequence (P45984 1-364): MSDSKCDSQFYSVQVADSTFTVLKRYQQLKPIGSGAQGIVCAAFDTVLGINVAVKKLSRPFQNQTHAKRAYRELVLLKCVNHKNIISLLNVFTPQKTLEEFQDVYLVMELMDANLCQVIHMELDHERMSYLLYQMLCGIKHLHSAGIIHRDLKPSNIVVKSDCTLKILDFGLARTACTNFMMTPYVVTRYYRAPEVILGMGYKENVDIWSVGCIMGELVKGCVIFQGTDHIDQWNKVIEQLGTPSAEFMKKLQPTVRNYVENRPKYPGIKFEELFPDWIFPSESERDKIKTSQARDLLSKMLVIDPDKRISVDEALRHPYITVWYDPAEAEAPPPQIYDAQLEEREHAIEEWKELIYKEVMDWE
Protocol: as §2

MARK3 = target: T12, MARK3 (Homo sapiens, UniProt P27448)
T12 construct: purchased in-house DSF panel (SGC Frankfurt)
T12 sequence (P27448 whole entry): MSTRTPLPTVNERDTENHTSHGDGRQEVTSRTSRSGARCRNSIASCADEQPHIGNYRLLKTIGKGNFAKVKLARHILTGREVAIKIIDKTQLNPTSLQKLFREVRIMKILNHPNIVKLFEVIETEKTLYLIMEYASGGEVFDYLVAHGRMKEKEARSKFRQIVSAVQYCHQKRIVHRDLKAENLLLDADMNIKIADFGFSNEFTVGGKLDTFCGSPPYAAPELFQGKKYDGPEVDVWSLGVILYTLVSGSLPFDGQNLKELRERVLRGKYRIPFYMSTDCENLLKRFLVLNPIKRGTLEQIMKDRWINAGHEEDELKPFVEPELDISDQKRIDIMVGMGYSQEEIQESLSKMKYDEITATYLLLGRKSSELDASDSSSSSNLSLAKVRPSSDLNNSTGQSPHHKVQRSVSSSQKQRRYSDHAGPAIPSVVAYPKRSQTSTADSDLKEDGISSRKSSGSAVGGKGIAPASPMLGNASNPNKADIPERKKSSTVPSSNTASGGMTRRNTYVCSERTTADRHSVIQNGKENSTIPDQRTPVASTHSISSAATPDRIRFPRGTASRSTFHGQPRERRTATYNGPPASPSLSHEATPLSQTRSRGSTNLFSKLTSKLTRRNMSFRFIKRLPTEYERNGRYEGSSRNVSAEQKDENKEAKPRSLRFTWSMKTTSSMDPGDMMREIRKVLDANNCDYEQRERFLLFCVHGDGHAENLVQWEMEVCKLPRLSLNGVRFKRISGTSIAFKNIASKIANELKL
Protocol: as §2

RPS6KA5 = tested on: RPS6KA5
Protocol: as §2

STK17B = target: T13, STK17B (Homo sapiens, UniProt O94768)
T13 construct: purchased in-house DSF panel (SGC Frankfurt)
T13 sequence (O94768 25-329): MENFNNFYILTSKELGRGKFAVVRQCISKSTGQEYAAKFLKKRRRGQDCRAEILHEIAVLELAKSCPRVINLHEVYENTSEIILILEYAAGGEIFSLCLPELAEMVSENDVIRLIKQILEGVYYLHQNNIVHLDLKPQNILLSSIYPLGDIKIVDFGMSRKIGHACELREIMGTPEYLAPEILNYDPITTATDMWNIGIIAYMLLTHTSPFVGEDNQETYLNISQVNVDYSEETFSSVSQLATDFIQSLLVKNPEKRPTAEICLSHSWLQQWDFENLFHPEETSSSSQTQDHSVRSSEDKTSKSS
Protocol: as §2

RIOK1 = target: T14, RIOK1 (Homo sapiens, UniProt Q9BRS2)
T14 construct: purchased in-house DSF panel (SGC Frankfurt)
T14 sequence (Q9BRS2 143-494): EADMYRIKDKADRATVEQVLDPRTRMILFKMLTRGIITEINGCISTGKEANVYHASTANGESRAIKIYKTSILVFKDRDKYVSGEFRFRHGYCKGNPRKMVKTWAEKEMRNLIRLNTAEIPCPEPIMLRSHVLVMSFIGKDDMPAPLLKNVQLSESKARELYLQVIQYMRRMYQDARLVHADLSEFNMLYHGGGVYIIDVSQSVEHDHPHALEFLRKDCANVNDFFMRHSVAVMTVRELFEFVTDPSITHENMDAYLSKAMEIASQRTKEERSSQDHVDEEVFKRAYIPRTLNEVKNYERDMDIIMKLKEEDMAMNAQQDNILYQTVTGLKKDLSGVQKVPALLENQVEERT
Protocol: as §1

T1 sequence (P55201 whole entry): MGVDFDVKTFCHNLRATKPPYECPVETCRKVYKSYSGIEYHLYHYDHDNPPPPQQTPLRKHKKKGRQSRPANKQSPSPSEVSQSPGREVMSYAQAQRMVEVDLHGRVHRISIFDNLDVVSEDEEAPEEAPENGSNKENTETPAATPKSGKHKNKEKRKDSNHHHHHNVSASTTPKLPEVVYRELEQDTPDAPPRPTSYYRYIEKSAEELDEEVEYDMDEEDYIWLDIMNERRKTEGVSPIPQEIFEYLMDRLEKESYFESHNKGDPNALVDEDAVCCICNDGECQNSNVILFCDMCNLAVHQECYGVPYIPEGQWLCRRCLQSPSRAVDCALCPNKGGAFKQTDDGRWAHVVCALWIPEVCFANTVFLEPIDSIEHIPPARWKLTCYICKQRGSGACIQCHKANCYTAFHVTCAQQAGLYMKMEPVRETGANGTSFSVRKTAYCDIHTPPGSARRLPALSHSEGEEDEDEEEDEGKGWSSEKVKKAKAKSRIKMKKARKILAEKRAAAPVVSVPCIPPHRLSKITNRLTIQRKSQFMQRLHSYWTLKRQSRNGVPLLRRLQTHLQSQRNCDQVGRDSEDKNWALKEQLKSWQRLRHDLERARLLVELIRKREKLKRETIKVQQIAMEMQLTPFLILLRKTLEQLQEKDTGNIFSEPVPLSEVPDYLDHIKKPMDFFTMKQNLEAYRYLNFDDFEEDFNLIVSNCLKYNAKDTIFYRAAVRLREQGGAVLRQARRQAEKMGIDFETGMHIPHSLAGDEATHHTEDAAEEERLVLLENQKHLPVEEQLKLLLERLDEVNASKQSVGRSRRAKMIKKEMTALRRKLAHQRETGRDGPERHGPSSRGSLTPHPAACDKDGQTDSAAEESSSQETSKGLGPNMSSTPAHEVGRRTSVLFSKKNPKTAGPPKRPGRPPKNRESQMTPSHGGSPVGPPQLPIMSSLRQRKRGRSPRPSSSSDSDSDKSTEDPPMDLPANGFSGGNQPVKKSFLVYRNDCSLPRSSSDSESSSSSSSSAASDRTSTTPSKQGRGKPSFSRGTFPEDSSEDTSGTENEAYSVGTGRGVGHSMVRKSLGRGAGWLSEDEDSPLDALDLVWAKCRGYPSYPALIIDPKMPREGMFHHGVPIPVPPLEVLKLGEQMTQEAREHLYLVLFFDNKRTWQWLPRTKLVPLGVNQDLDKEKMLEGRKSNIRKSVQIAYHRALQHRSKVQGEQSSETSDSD

| SMILES | ΔTm BRPF1B (BRPF1B) [°C] | ΔTm ABL1 (ABL1) [°C] | ΔTm CASK (CASK) [°C] | ΔTm MAPK1 (MAPK1) [°C] | ΔTm PHKG2 (PHKG2) [°C] | ΔTm VRK1 (VRK1) [°C] | ΔTm CLK3 (CLK3) [°C] | ΔTm DYRK1A (DYRK1A) [°C] | ΔTm EPHB1 (EPHB1) [°C] | ΔTm MAPK8 (MAPK8) [°C] | ΔTm MAPK9 (MAPK9) [°C] | ΔTm MARK3 (MARK3) [°C] | ΔTm RPS6KA5 (RPS6KA5) [°C] | ΔTm STK17B (STK17B) [°C] | ΔTm RIOK1 (RIOK1) [°C] |
| --- | --- | --- | --- | --- | --- | --- | --- | --- | --- | --- | --- | --- | --- | --- | --- |
| CC(C)OC(=O)c1cc(Nc2ccnc(NCc3ccc(NC(=O)OC(C)(C)C)cc3)n2)n[nH]1 [42d, isopropyl 3-((2-((4-((tert-butoxycarbonyl)amino)benzyl)amino)pyrimidin-4-yl)amino)-1H-pyrazole-5-carboxylate] | -1.4 | 1.0 | 0.4 | -0.1 | -0.2 | 0.5 | -0.4 | 0.0 | 0.9 | -0.8 | -0.7 | -0.4 | 0.8 | -2.8 | – |
| COC(=O)c1cc(Nc2ccnc(NCc3ccc(NC(=O)OC(C)(C)C)cc3)n2)[nH]n1 [21i, methyl 5-((2-((4-((tert-butoxycarbonyl)amino)benzyl)amino)pyrimidin-4-yl)amino)-1H-pyrazole-3-carboxylate] | – | 0.7 | 0.2 | 0.7 | -0.3 | 1.1 | 0.4 | 3.4 | – | – | 1.7 | 1.5 | – | 3.4 | 0.8 |
| CC(C)(C)OC(=O)Nc1ccc(CNc2nccc(Nc3cc(C(=O)OC(C)(C)C)[nH]n3)n2)cc1 [43d, tert-butyl 3-((2-((4-((tert-butoxycarbonyl)amino)benzyl)amino)pyrimidin-4-yl)amino)-1H-pyrazole-5-carboxylate] | -0.9 | 1.6 | 0.4 | 0.0 | 0.5 | 0.9 | 0.0 | 1.8 | 1.0 | -0.1 | -1.4 | -0.5 | 1.7 | -2.5 | – |
| COC(=O)c1cc(Nc2ccnc(NCCOCCNC(=O)OC(C)(C)C)n2)[nH]n1 [21d, methyl 5-((2-((2-(2-((tert-butoxycarbonyl)amino)ethoxy)ethyl)amino)pyrimidin-4-yl)amino)-1H-pyrazole-3-carboxylate] | – | 1.2 | 0.4 | 0.3 | 0.5 | 1.0 | 1.1 | 1.2 | – | – | 1.1 | 2.5 | – | 1.6 | 0.1 |
| N#CCc1ccc(Nc2nccc(Nc3cc(C4CC4)[nH]n3)n2)cc1 [compound 1, reference compound] | – | 8.7 | 2.0 | 8.5 | 8.8 | 5.9 | 11.3 | 8.2 | – | – | 6.5 | 8.1 | – | 9.7 | 4.9 |
